In PubChem BioAssay AID330 (DTP/NCI, 2004) one finds T/C data, which are given here for 25 molecules.

For this assay, the system named is P388 leukemia ip, CD2F1 mice, survival T/C. Description: NCI In Vivo Anticancer Drug Screen. Data for tumor model P388 Leukemia (intraperitoneal) in CD2F1 (CDF1) mice. The note with it: endpoint: median survival time, higher = longer survival. In a few lines: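 Mice carrying the transplanted tumor received test compound or vehicle. Survival was recorded in each group, and the value is the treated-group measurement divided by that of the vehicle-treated control group.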

Where [1] appears, read: dose: 25.0 mg/kg/injection, schedule: Q01DX005 (ip), vehicle: saline with Tween-80.
Setting [2] is: dose: 50.0 mg/kg/injection, schedule: Q01DX005 (ip), vehicle: saline with Tween-80.
Setting [3] is: dose: 100.0 mg/kg/injection, schedule: Q01DX005 (ip), vehicle: saline with Tween-80.
Setting [4] is: dose: 60.0 mg/kg/injection, schedule: Q01DX005 (ip), vehicle: saline with Tween-80.
Where [5] appears, read: dose: 120.0 mg/kg/injection, schedule: Q01DX005 (ip), vehicle: saline with Tween-80.
Setting [6] is: dose: 240.0 mg/kg/injection, schedule: Q01DX005 (ip), vehicle: saline with Tween-80.
Where [7] appears, read: dose: 100.0 mg/kg/injection, schedule: Q04DX003 (ip), vehicle: saline.
Setting [8] is: dose: 200.0 mg/kg/injection, schedule: Q04DX003 (ip), vehicle: saline.
[9] abbreviates: dose: 400.0 mg/kg/injection, schedule: Q04DX003 (ip), vehicle: saline.
Setting [10] is: dose: 12.5 mg/kg/injection, schedule: Q01DX009 (ip), vehicle: saline with Tween-80.
The mark [11] stands for this setting: dose: 25.0 mg/kg/injection, schedule: Q01DX009 (ip), vehicle: saline with Tween-80.
[12] abbreviates: dose: 50.0 mg/kg/injection, schedule: Q01DX009 (ip), vehicle: saline with Tween-80.
Where [13] appears, read: dose: 200.0 mg/kg/injection, schedule: Q01DX009 (ip), vehicle: saline with Tween-80.
[14] abbreviates: dose: 100.0 mg/kg/injection, schedule: Q04DX003 (ip), vehicle: saline with Tween-80.
The mark [15] stands for this setting: dose: 200.0 mg/kg/injection, schedule: Q04DX003 (ip), vehicle: saline with Tween-80.
Setting [16] is: dose: 400.0 mg/kg/injection, schedule: Q04DX003 (ip), vehicle: saline with Tween-80.
The mark [17] stands for this setting: dose: 100.0 mg/kg/injection, schedule: Q01DX001 (ip), vehicle: saline.
[18] abbreviates: dose: 200.0 mg/kg/injection, schedule: Q01DX001 (ip), vehicle: saline.
The mark [19] stands for this setting: dose: 400.0 mg/kg/injection, schedule: Q01DX001 (ip), vehicle: saline.
Setting [20] is: dose: 50.0 mg/kg/injection, schedule: Q01DX005 (ip), vehicle: Klucel (hydroxypropylcellulose) (HPC).
The mark [21] stands for this setting: dose: 100.0 mg/kg/injection, schedule: Q01DX005 (ip), vehicle: Klucel (hydroxypropylcellulose) (HPC).
The mark [22] stands for this setting: dose: 200.0 mg/kg/injection, schedule: Q01DX005 (ip), vehicle: Klucel (hydroxypropylcellulose) (HPC).

Each structure is given as a SMILES string. Toxic doses and inconclusive results are not listed.

Consider `CC(C)NC(=O)OCc1c(COC(=O)NC(C)C)c(Sc2ccccc2)n2c1CCC2`, for which the T/C by setting is: under setting [1], 154 % of control; under setting [2], 163 % of control; under setting [3], 110 % of control.

On to `CN(C)C(=O)CC(c1ccccc1)C(CO)c1ccccc1` (configuration not stated), for which the T/C is, setting by setting: (dose: 25.0 mg/kg/injection, schedule: Q01DX001 (ip), vehicle: Klucel (hydroxypropylcellulose) (HPC)) 88 % of control; (dose: 50.0 mg/kg/injection, schedule: Q01DX001 (ip), vehicle: Klucel (hydroxypropylcellulose) (HPC)) 91 % of control; (dose: 100.0 mg/kg/injection, schedule: Q01DX001 (ip), vehicle: Klucel (hydroxypropylcellulose) (HPC)) 89 % of control; (dose: 200.0 mg/kg/injection, schedule: Q01DX001 (ip), vehicle: Klucel (hydroxypropylcellulose) (HPC)) 88 % of control.

With `CCOC(=O)C1CSC(c2ccccc2)=N1` (configuration not stated), the T/C under setting [4] is 109 % of control, the T/C under setting [5] is 111 % of control and the T/C under setting [6] is 111 % of control.

Take `CCCCCCCCCCCCS(=O)(=O)CCC(=O)c1ccco1`: the T/C was 99 % of control under setting [7], 99 % of control under setting [8] and 97 % of control under setting [9].

As to `CCC(=O)NC1=CCC(C(C)(C)C)CC1` (configuration not stated), the T/C under setting [2] was 102 % of control and the T/C under setting [3] was 102 % of control.

Regarding `S=C1NCC(c2ccc(Cl)cc2)[Se]1` (configuration not stated), the T/C was 100 % of control (dose: 50.0 mg/kg/injection, schedule: Q01DX009 (ip), vehicle: DMSO) and 100 % of control (dose: 100.0 mg/kg/injection, schedule: Q01DX009 (ip), vehicle: DMSO).

With `O=C(O)C1=C(C=C(c2ccccc2)c2ccccc2)OCCC1`, the T/C reads like this: under setting [10], 92 % of control; under setting [11], 90 % of control; under setting [12], 91 % of control; under setting [13], 97 % of control.

As for `CC(=O)CS(F)(F)(F)(F)F`, the T/C under setting [2] was 105 % of control.

Turning to `C=CCN1CCCC1=O`, the T/C reads like this: under setting [7], 100 % of control; under setting [8], 100 % of control; under setting [9], 95 % of control.

As to `CC12CCC(O)CC1CCC1C2C(O)CC2(C)C1CCC2(C)O` (configuration not stated), the T/C was 105 % of control (dose: 100.0 mg/kg/injection, schedule: Q04DX003 (ip), vehicle: alcohol); 90 % of control (dose: 200.0 mg/kg/injection, schedule: Q04DX003 (ip), vehicle: alcohol); 115 % of control (dose: 400.0 mg/kg/injection, schedule: Q04DX003 (ip), vehicle: alcohol).

For `[N-]=[N+]=NC(=O)c1cccs1`, the T/C reads like this: under setting [10], 100 % of control; under setting [11], 101 % of control; under setting [12], 100 % of control.

For the molecule `Nc1ccc(-c2ccc(C(=O)O)cc2)cc1`, the T/C was 104 % of control under setting [4], 106 % of control under setting [5] and 109 % of control under setting [6].

For the molecule `CCCCNCCC(SSSC(CCNCCCC)c1ccc(Cl)cc1)c1ccc(Cl)cc1` (configuration not stated), the T/C runs as follows: (dose: 6.25 mg/kg/injection, schedule: Q01DX009 (ip), vehicle: saline with Tween-80) 100 % of control; under setting [10], 100 % of control; under setting [11], 90 % of control.

As to `Cc1nonc1CCO`, the T/C (dose: 50.0 mg/kg/injection, schedule: Q01DX005 (ip), vehicle: saline) is 105 % of control; the T/C (dose: 100.0 mg/kg/injection, schedule: Q01DX005 (ip), vehicle: saline) was 102 % of control; the T/C (dose: 200.0 mg/kg/injection, schedule: Q01DX005 (ip), vehicle: saline) was 103 % of control.

In the case of `C(#C[P+]1(c2ccccc2)C=C(c2ccccc2)OC(c2ccccc2)=C1)c1ccccc1`, the T/C was 107 % of control (dose: 12.5 mg/kg/injection, schedule: Q01DX005 (ip), vehicle: saline with Tween-80); 102 % of control under setting [1]; 107 % of control under setting [2].

Take `Cc1noc(NCc2ccccc2)c1C`: the T/C is 104 % of control under setting [14], 101 % of control under setting [15] and 100 % of control under setting [16].

As for `NC(=S)c1cccc(/C=N/Nc2ccc([N+](=O)[O-])cc2[N+](=O)[O-])c1`, the T/C is, setting by setting: under setting [17], 99 % of control; under setting [18], 105 % of control; under setting [19], 96 % of control.

For `C[C@]12C=CC(=O)C=C1CC[C@H]1[C@@H]3CCC(=O)O[C@@]3(C)CC(=O)[C@@]12F`, the T/C runs as follows: under setting [14], 91 % of control; under setting [15], 95 % of control; under setting [16], 100 % of control.

Turning to `CN(C)c1nc(=O)c2cc(Br)ccc2o1`, the T/C is 96 % of control (dose: 60.0 mg/kg/injection, schedule: Q01DX005 (ip), vehicle: Klucel (hydroxypropylcellulose) (HPC)) and 100 % of control (dose: 120.0 mg/kg/injection, schedule: Q01DX005 (ip), vehicle: Klucel (hydroxypropylcellulose) (HPC)).

Consider `Cc1[nH]n(-c2cc(S(=O)(=O)O)ccc2Cl)c(=O)c1N=Nc1c(NC(=O)c2ccc(N)cc2)ccc2cc(S(=O)(=O)O)ccc12`, for which the T/C under setting [20] was 96 % of control, the T/C under setting [21] was 105 % of control and the T/C under setting [22] was 115 % of control.

As to `O=C(O)CCCc1ccc2c(c1)OCO2`, the T/C under setting [2] was 113 % of control; the T/C under setting [3] is 98 % of control; the T/C (dose: 200.0 mg/kg/injection, schedule: Q01DX005 (ip), vehicle: saline with Tween-80) was 106 % of control.

As for `Cc1ccc(S(=O)(=O)NC(CSCc2ccccc2)C(=O)O)cc1` (configuration not stated), the T/C by setting is: under setting [14], 100 % of control; under setting [15], 100 % of control; under setting [16], 100 % of control.

`O=C1NN=C2CCCCCCCCCCC12Cl` (configuration not stated): the T/C is 108 % of control under setting [12]; 106 % of control (dose: 100.0 mg/kg/injection, schedule: Q01DX009 (ip), vehicle: saline with Tween-80); 106 % of control under setting [13].

For `COc1cccc(/C=N\c2nc(-c3ccccc3Cl)cs2)c1O`, the T/C reads like this: under setting [20], 89 % of control; under setting [21], 94 % of control; under setting [22], 105 % of control.

On to `C=C1CC[C@H]2C(C)=CC[C@@H]3[C@H](OC(=O)[C@H]3CN(C)C)[C@@H]12`, for which the T/C reads like this: under setting [17], 98 % of control; under setting [18], 104 % of control; under setting [19], 105 % of control.
